System: MV-4-11 cells
Test: Gene expression microarray analysis (Affymetrix PrimeView) and GSEA
Format: cell-based, human
Set-up: RFU PODN (11730768_x_at) / Fold change /veh PODN (11730768_x_at) / RFU LINC00158 (11744669_a_at) / Fold change /veh LINC00158 (11744669_a_at) / RFU DUSP10 (11751237_a_at) / Fold change /veh DUSP10 (11751237_a_at) / RFU ID3 (11757404_x_at) / Fold change /veh ID3 (11757404_x_at) / RFU PLEKHG5 (11737974_s_at) / Fold change /veh PLEKHG5 (11737974_s_at) / RFU LRRC4B (11730491_at) / Fold change /veh LRRC4B (11730491_at) / RFU GIMAP4 (11747438_a_at) / Fold change /veh GIMAP4 (11747438_a_at) / RFU KRT8 (11758183_x_at) / Fold change /veh KRT8 (11758183_x_at) / RFU CNN1 (11734310_a_at) / Fold change /veh CNN1 (11734310_a_at) / RFU VPS37D (11726825_at) / Fold change /veh VPS37D (11726825_at) / RFU C10orf10 (11716522_x_at) / Fold change /veh C10orf10 (11716522_x_at) / RFU KIR2DL2 /// KIR2DL4 /// KIR2DL5A /// KIR2DL5B /// KIR2DS1 /// KIR2DS2 /// KIR2DS3 /// KIR2DS4 /// KIR3DL3 /// KIR3DL3 /// KIR3DS1 (11738374_at) / Fold change /veh KIR2DL2 /// KIR2DL4 /// KIR2DL5A /// KIR2DL5B /// KIR2DS1 /// KIR2DS2 /// KIR2DS3 /// KIR2DS4 /// KIR3DL3 /// KIR3DL3 /// KIR3DS1 (11738374_at) / RFU C1QL1 (11718748_at) / Fold change /veh C1QL1 (11718748_at) / RFU TMPRSS4 (11747572_a_at) / Fold change /veh TMPRSS4 (11747572_a_at) / RFU HAMP (11756126_x_at) / Fold change /veh HAMP (11756126_x_at) / RFU RNFT2 (11725882_a_at) / Fold change /veh RNFT2 (11725882_a_at) / RFU NR4A2 (11747474_a_at) / Fold change /veh NR4A2 (11747474_a_at) / RFU ABCC12 (11746883_a_at) / Fold change /veh ABCC12 (11746883_a_at) / RFU TMEM136 (11760407_x_at) / Fold change /veh TMEM136 (11760407_x_at) / RFU CLDN22 /// WWC2 (11732394_at) / Fold change /veh CLDN22 /// WWC2 (11732394_at) / RFU HLA-DPB1 (11760878_x_at) / Fold change /veh HLA-DPB1 (11760878_x_at) / RFU SPINT1 (11716480_a_at) / Fold change /veh SPINT1 (11716480_a_at) / RFU GAP43 (11754022_s_at) / Fold change /veh GAP43 (11754022_s_at) / RFU A4GNT (11735810_at) / Fold change /veh A4GNT (11735810_at) / RFU PRB3 (11715151_x_at) / Fold change /veh PRB3 (11715151_x_at) / RFU TUBB4B (11761932_at) / Fold change /veh TUBB4B (11761932_at) / RFU CAPN14 (11732068_a_at) / Fold change /veh CAPN14 (11732068_a_at) / RFU TMCC2 (11721928_a_at) / Fold change /veh TMCC2 (11721928_a_at) / RFU IRGQ (11745062_a_at) / Fold change /veh IRGQ (11745062_a_at) / RFU FAM174B (11720279_a_at) / Fold change /veh FAM174B (11720279_a_at) / RFU TMPRSS4 (11748680_a_at) / Fold change /veh TMPRSS4 (11748680_a_at) / RFU FAM212B (11763350_a_at) / Fold change /veh FAM212B (11763350_a_at) / RFU PLEKHG5 (11743358_a_at) / Fold change /veh PLEKHG5 (11743358_a_at) / RFU ZSCAN30 (11745921_a_at) / Fold change /veh ZSCAN30 (11745921_a_at) / RFU CMKLR1 (11741424_a_at) / Fold change /veh CMKLR1 (11741424_a_at) / RFU LOC101060620 /// MAPK8IP1 (11723275_at) / Fold change /veh LOC101060620 /// MAPK8IP1 (11723275_at) / RFU SPTSSB (11747773_x_at) / Fold change /veh SPTSSB (11747773_x_at) / RFU PRSS12 (11739890_at) / Fold change /veh PRSS12 (11739890_at) / RFU BIN1 (11741810_x_at) / Fold change /veh BIN1 (11741810_x_at) / RFU WNT11 (11732464_a_at) / Fold change /veh WNT11 (11732464_a_at) / RFU C10orf10 (11716521_a_at) / Fold change /veh C10orf10 (11716521_a_at) / RFU C5orf56 (11738089_at) / Fold change /veh C5orf56 (11738089_at) / RFU CYB561 (11721691_x_at) / Fold change /veh CYB561 (11721691_x_at) / RFU ANKRD19P (11752326_a_at) / Fold change /veh ANKRD19P (11752326_a_at) / RFU OR2T12 /// OR2T33 /// OR2T8 (11738714_s_at) / Fold change /veh OR2T12 /// OR2T33 /// OR2T8 (11738714_s_at) / RFU VCAN (11748164_a_at) / Fold change /veh VCAN (11748164_a_at) / RFU JSRP1 (11732532_at) / Fold change /veh JSRP1 (11732532_at) / RFU KRTAP10-11 (11738290_x_at) / Fold change /veh KRTAP10-11 (11738290_x_at) / RFU MYO3A (11730013_a_at) / Fold change /veh MYO3A (11730013_a_at) / RFU EBF3 (11725865_a_at) / Fold change /veh EBF3 (11725865_a_at) / RFU CAMK2N1 (11719241_x_at) / Fold change /veh CAMK2N1 (11719241_x_at) / RFU C5orf56 (11738088_a_at) / Fold change /veh C5orf56 (11738088_a_at) / RFU OLFML3 (11715873_a_at) / Fold change /veh OLFML3 (11715873_a_at) / RFU LOC100653217 /// NTM (11731650_a_at) / Fold change /veh LOC100653217 /// NTM (11731650_a_at) / RFU MAPK11 (11762145_a_at) / Fold change /veh MAPK11 (11762145_a_at) / RFU FIZ1 (11724087_x_at) / Fold change /veh FIZ1 (11724087_x_at) / RFU OASL (11726364_x_at) / Fold change /veh OASL (11726364_x_at) / RFU SOX15 (11748057_x_at) / Fold change /veh SOX15 (11748057_x_at) / RFU CD79A (11719716_a_at) / Fold change /veh CD79A (11719716_a_at) / RFU HIST1H1D (11736915_at) / Fold change /veh HIST1H1D (11736915_at) / RFU CASKIN2 (11723855_a_at) / Fold change /veh CASKIN2 (11723855_a_at) / RFU LOC730098 (11760151_x_at) / Fold change /veh LOC730098 (11760151_x_at) / RFU OR4N2 (11742367_at) / Fold change /veh OR4N2 (11742367_at) / RFU PRRT2 (11749266_a_at) / Fold change /veh PRRT2 (11749266_a_at) / RFU SNX32 (11753110_a_at) / Fold change /veh SNX32 (11753110_a_at) / RFU CDHR5 (11726645_a_at) / Fold change /veh CDHR5 (11726645_a_at) / RFU RCAN1 (11760418_a_at) / Fold change /veh RCAN1 (11760418_a_at) / RFU FAM167A (11723789_a_at) / Fold change /veh FAM167A (11723789_a_at) / RFU FAM26E (11764081_at) / Fold change /veh FAM26E (11764081_at) / RFU ISYNA1 (11749810_s_at) / Fold change /veh ISYNA1 (11749810_s_at) / RFU ACY1 (11761880_at) / Fold change /veh ACY1 (11761880_at) / RFU 11764098_at / Fold change /veh 11764098_at / RFU SAMD14 (11745864_x_at) / Fold change /veh SAMD14 (11745864_x_at) / RFU NPB (11741838_a_at) / Fold change /veh NPB (11741838_a_at) / RFU TMPRSS6 (11731388_a_at) / Fold change /veh TMPRSS6 (11731388_a_at) / RFU KRTAP10-2 (11738614_at) / Fold change /veh KRTAP10-2 (11738614_at) / RFU ARHGAP8 /// PRR5-ARHGAP8 (11727945_x_at) / Fold change /veh ARHGAP8 /// PRR5-ARHGAP8 (11727945_x_at) / RFU KRTAP5-7 /// NADSYN1 (11734609_at) / Fold change /veh KRTAP5-7 /// NADSYN1 (11734609_at) / RFU RASL12 (11751679_a_at) / Fold change /veh RASL12 (11751679_a_at) / RFU CDKN2B (11736163_a_at) / Fold change /veh CDKN2B (11736163_a_at) / RFU PRF1 (11729649_at) / Fold change /veh PRF1 (11729649_at) / RFU, ZNF638 /// ZNF638-IT1 / Fold change vs veh, ZNF638 /// ZNF638-IT1 / RFU, PANK3 / Fold change vs veh, PANK3 / RFU, SH3YL1 / Fold change vs veh, SH3YL1 / RFU, ZEB2 / Fold change vs veh, ZEB2 / RFU, NRIP1 / Fold change vs veh, NRIP1 / RFU, PTTG1IP / Fold change vs veh, PTTG1IP / RFU, CAPN2 / Fold change vs veh, CAPN2 / RFU, MED14 / Fold change vs veh, MED14 / RFU, SNORA58 / Fold change vs veh, SNORA58 / RFU, C1orf63 / Fold change vs veh, C1orf63 / RFU, LRRFIP1 / Fold change vs veh, LRRFIP1 / RFU, NDUFAF7 / Fold change vs veh, NDUFAF7 / RFU, SLC12A2 / Fold change vs veh, SLC12A2 / RFU, IBTK / Fold change vs veh, IBTK / RFU, ESF1 / Fold change vs veh, ESF1 / Fold change vs veh, TMEM50B / RFU, TAOK1 / Fold change vs veh, TAOK1 / RFU, ACBD3 / Fold change vs veh, ACBD3 / RFU, TMA16 / Fold change vs veh, TMA16 / RFU, RWDD3 / Fold change vs veh, RWDD3 / RFU, BCAT1 / Fold change vs veh, BCAT1 / RFU, EDEM3 / Fold change vs veh, EDEM3 / RFU, TMEM33 / Fold change vs veh, TMEM33 / RFU, WDR75 / Fold change vs veh, WDR75 / RFU, AHCTF1 / Fold change vs veh, AHCTF1 / RFU, TFRC / Fold change vs veh, TFRC / RFU, ZDHHC17 / Fold change vs veh, ZDHHC17 / RFU, NOM1 / Fold change vs veh, NOM1 / RFU, ARL8B / Fold change vs veh, ARL8B / RFU, ZBTB11 / Fold change vs veh, ZBTB11 / RFU, TAMM41 / Fold change vs veh, TAMM41 / RFU, KIAA1704 /// LOC100996395 / Fold change vs veh, KIAA1704 /// LOC100996395 / RFU, ING1 / Fold change vs veh, ING1 / RFU, TRMT61B / Fold change vs veh, TRMT61B / RFU, FUBP3 / Fold change vs veh, FUBP3 / RFU, TP53 / Fold change vs veh, TP53 / RFU, TNKS2 / Fold change vs veh, TNKS2 / RFU, ZFP14 / Fold change vs veh, ZFP14 / RFU, ACTR2 / Fold change vs veh, ACTR2 / RFU, PPP3R1 / Fold change vs veh, PPP3R1 / RFU, PIK3R1 / Fold change vs veh, PIK3R1 / RFU, HNRNPA1 / Fold change vs veh, HNRNPA1 / RFU, RNF170 / Fold change vs veh, RNF170 / RFU, ZNF28 / Fold change vs veh, ZNF28 / RFU, RNGTT / Fold change vs veh, RNGTT / RFU, OGT / Fold change vs veh, OGT / RFU, BRD1 / Fold change vs veh, BRD1 / RFU, MARS / Fold change vs veh, MARS / RFU, ZNF655 / Fold change vs veh, ZNF655 / RFU, FAHD1 / Fold change vs veh, FAHD1 / RFU, BDP1 / Fold change vs veh, BDP1 / RFU, LRRCC1 / Fold change vs veh, LRRCC1 / RFU, ARID1A / Fold change vs veh, ARID1A / RFU, ZNF146 / Fold change vs veh, ZNF146 / RFU, ZNF330 / Fold change vs veh, ZNF330 / RFU, GPN3 / Fold change vs veh, GPN3 / RFU, C9orf123 / Fold change vs veh, C9orf123 / RFU, N4BP2L2 / Fold change vs veh, N4BP2L2 / RFU, ARFIP1 / Fold change vs veh, ARFIP1 / RFU, FAM179B / Fold change vs veh, FAM179B / RFU, BCL10 / Fold change vs veh, BCL10 / RFU, UHRF1BP1L / Fold change vs veh, UHRF1BP1L / RFU, BET1 / Fold change vs veh, BET1 / RFU, CNOT2 / Fold change vs veh, CNOT2 / RFU, ZNF268 / Fold change vs veh, ZNF268 / Fold change vs veh, ZNF507 / RFU, DGCR2 / Fold change vs veh, DGCR2 / RFU, WDSUB1 / Fold change vs veh, WDSUB1 / Fold change vs veh, HSP90B1 /// MIR3652 / RFU, ADSS / Fold change vs veh, ADSS / RFU, GK / Fold change vs veh, GK / RFU, ZNF148 / Fold change vs veh, ZNF148 / RFU, TAF9 / Fold change vs veh, TAF9 / RFU, SLC1A5 / Fold change vs veh, SLC1A5 / RFU, SLMO2 / Fold change vs veh, SLMO2 / RFU, ABCC4 / Fold change vs veh, ABCC4 / RFU, LOC101060439 /// RAP1B / Fold change vs veh, LOC101060439 /// RAP1B / RFU, RFX7 / Fold change vs veh, RFX7 / RFU, GTPBP10 / Fold change vs veh, GTPBP10 / RFU, CNEP1R1 / Fold change vs veh, CNEP1R1 / RFU, BIVM-ERCC5 /// ERCC5 / Fold change vs veh, BIVM-ERCC5 /// ERCC5 / RFU, ILF3 / Fold change vs veh, ILF3 / RFU 11762660_at / Fold change /veh 11762660_at / RFU VCAN (11757783_s_at) / Fold change /veh VCAN (11757783_s_at) / RFU DDX43 (11728927_at) / Fold change /veh DDX43 (11728927_at) / RFU KRT8 (11758188_x_at) / Fold change /veh KRT8 (11758188_x_at) / RFU NKD1 (11759106_at) / Fold change /veh NKD1 (11759106_at) / RFU SRD5A1 (11742802_a_at) / Fold change /veh SRD5A1 (11742802_a_at) / RFU TPSAB1 /// TPSB2 (11721975_s_at) / Fold change /veh TPSAB1 /// TPSB2 (11721975_s_at) / RFU GSTM3 (11746129_a_at) / Fold change /veh GSTM3 (11746129_a_at) / RFU IL23R (11737362_x_at) / Fold change /veh IL23R (11737362_x_at) / RFU TMEM51 (11727254_a_at) / Fold change /veh TMEM51 (11727254_a_at) / RFU PIWIL2 (11732686_x_at) / Fold change /veh PIWIL2 (11732686_x_at) / RFU ORM1 (11744905_x_at) / Fold change /veh ORM1 (11744905_x_at) / RFU CCDC152 (11743942_at) / Fold change /veh CCDC152 (11743942_at) / RFU ECM1 (11717891_a_at) / Fold change /veh ECM1 (11717891_a_at) / RFU IL23R (11748794_a_at) / Fold change /veh IL23R (11748794_a_at) / RFU TNFAIP8L3 (11732012_x_at) / Fold change /veh TNFAIP8L3 (11732012_x_at) / RFU MBOAT4 (11741988_at) / Fold change /veh MBOAT4 (11741988_at) / RFU 11764193_at / Fold change /veh 11764193_at / RFU TMEM53 (11763286_at) / Fold change /veh TMEM53 (11763286_at) / RFU MAGEB2 (11727129_at) / Fold change /veh MAGEB2 (11727129_at) / RFU TMEM200A (11744735_a_at) / Fold change /veh TMEM200A (11744735_a_at) / RFU CCDC152 (11751479_a_at) / Fold change /veh CCDC152 (11751479_a_at) / RFU FAM211A (11726209_a_at) / Fold change /veh FAM211A (11726209_a_at) / RFU RGS16 (11746705_a_at) / Fold change /veh RGS16 (11746705_a_at) / RFU VCAN (11755009_s_at) / Fold change /veh VCAN (11755009_s_at) / RFU RHOB (11743442_s_at) / Fold change /veh RHOB (11743442_s_at) / RFU RGS16 (11720943_a_at) / Fold change /veh RGS16 (11720943_a_at) / RFU RGS16 (11720944_at) / Fold change /veh RGS16 (11720944_at) / RFU, VPS4B / Fold change vs veh, VPS4B / RFU, CREB1 / Fold change vs veh, CREB1 / RFU, DNAJC13 / Fold change vs veh, DNAJC13 / RFU, GNAQ / Fold change vs veh, GNAQ / RFU, CDK5R1 / Fold change vs veh, CDK5R1 / RFU, ZRANB3 / Fold change vs veh, ZRANB3 / RFU, CUL4A / Fold change vs veh, CUL4A / RFU, CCNY / Fold change vs veh, CCNY / RFU, UFL1 / Fold change vs veh, UFL1 / RFU, COG3 / Fold change vs veh, COG3 / RFU, DIAPH2 / Fold change vs veh, DIAPH2 / RFU, SKA2 / Fold change vs veh, SKA2 / RFU, AFF3 / Fold change vs veh, AFF3 / RFU, LMF1 / Fold change vs veh, LMF1 / RFU, IPO11 / Fold change vs veh, IPO11 / RFU, DFFB / Fold change vs veh, DFFB / RFU, FOXP1 / Fold change vs veh, FOXP1 / RFU, CARD8 / Fold change vs veh, CARD8 / RFU, STRN3 / Fold change vs veh, STRN3 / RFU, ADK / Fold change vs veh, ADK / RFU, RASSF2 / Fold change vs veh, RASSF2 / RFU, WIPF1 / Fold change vs veh, WIPF1 / RFU, LARP1B / Fold change vs veh, LARP1B / RFU, RASA1 / Fold change vs veh, RASA1 / RFU, RB1 / Fold change vs veh, RB1 / RFU, PPFIA1 / Fold change vs veh, PPFIA1 / RFU, MAT2A / Fold change vs veh, MAT2A / RFU, CCT5 / Fold change vs veh, CCT5 / RFU, WDR92 / Fold change vs veh, WDR92 / RFU, CUX1 / Fold change vs veh, CUX1 / RFU, TTC7A / Fold change vs veh, TTC7A / RFU, TMEM135 / Fold change vs veh, TMEM135 / RFU, DEPTOR / Fold change vs veh, DEPTOR / RFU, CPM / Fold change vs veh, CPM / RFU, DNAJB6 / Fold change vs veh, DNAJB6 / RFU, CACNA2D3 / Fold change vs veh, CACNA2D3 / RFU, DTX4 / Fold change vs veh, DTX4 / RFU, TFCP2 / Fold change vs veh, TFCP2 / RFU, GMCL1 /// GMCL1P1 / Fold change vs veh, GMCL1 /// GMCL1P1 / RFU, AEBP2 / Fold change vs veh, AEBP2 / RFU, SNHG1 /// SNORD22 /// SNORD25 /// SNORD26 /// SNORD27 /// SNORD28 /// SNORD29 /// SNORD31 / Fold change vs veh, SNHG1 /// SNORD22 /// SNORD25 /// SNORD26 /// SNORD27 /// SNORD28 /// SNORD29 /// SNORD31 / Fold change (Aza/veh), C12orf56 (ProbeSet 11735607_a_at) / Fold change (ACY-1035/veh), C12orf56 (ProbeSet 11735607_a_at) / Fold change (Aza/veh), FGFR1OP (ProbeSet 11751329_s_at) / Fold change (ACY-1035/veh), FGFR1OP (ProbeSet 11751329_s_at) / Fold change (Aza/veh), VPS36 (ProbeSet 11739960_a_at) / Fold change (ACY-1035/veh), VPS36 (ProbeSet 11739960_a_at) / RFU SYPL1 (11715823_x_at) / Fold change /veh SYPL1 (11715823_x_at) / RFU IGFBP7 (11715501_s_at) / Fold change /veh IGFBP7 (11715501_s_at) / RFU REEP3 (11722064_at) / Fold change /veh REEP3 (11722064_at) / RFU IGLL1 (11728026_x_at) / Fold change /veh IGLL1 (11728026_x_at): dose or concentration left out as unconfirmed
Settings: ProbeSet 11715478_a_at; LIST B

Compound: Nc1ncn([C@@H]2O[C@H](CO)[C@@H](O)[C@H]2O)c(=O)n1 [azacitidine]
- Fold change vs veh, TFRC: 0.85
